In US8809270B2, “Method for reducing cardiovascular morbidity and mortality in prediaetic patients and patients with type 2 diabetes” (priority 2003, dated 2014):

Columns and labels:
[1] = tested on: diabetic patients hospitalized with acute MI; details: IV insulin-glucose infusion in-hospital followed by intensive chronic outpatient insulin, versus standard treatment; cited from earlier work
[2] = tested on: IGT; details: statistically significant; cited from earlier work
[3] = after injection; cited from earlier work
[4] = tested on: patients with various levels of fasting hypertriglyceridemia; assay: Two multicenter placebo-controlled AMARYL registration studies: lipid data; assay type: in vivo, human; set-up: Triglycerides % reduction from baseline / Non-HDL Cholesterol Total % reduction from baseline: concentration or dose not given beside the values; Triglycerides Baseline / Triglycerides Endpoint: unit not given beside the values
Excerpt: There is evidence from the literature that use of sulfonylurea (SU) as initial drug treatment of the type 2 patient with DDL exerts a weaker effect on reduction of hypertriglyceridemia, or on increasing HDL-C, than is seen with insulin, and/or that the effects are less durable. In order to compare the effects of Lantus LANTUS (insulin glargine) on fasting TG and non-HDL-C levels with oral agents from the sulfonylurea class, the glimepiride (Amaryl® AMARYL) database at Aventis was examined.

[5] = tested on: type 2 diabetic patients already treated with other oral antidiabetic drugs; assay: Study 4014: lipid data, LANTUS versus rosiglitazone; assay type: in vivo, human; set-up: Triglycerides % reduction from baseline / Triglycerides % reduction from baseline, LANTUS-AVANDIA / Non-HDL Cholesterol Total % reduction from baseline: concentration or dose not given beside the values; Triglycerides Baseline / Triglycerides Endpoint: unit not given beside the values
[6] = tested on: abnormalities of DDL; details: in vivo; cited from earlier work

Compound: insulin: IV insulin-glucose infusion followed by intensive chronic outpatient treatment with insulin (DIGAMI study)
- reduction of all-cause mortality [1]: 28%

Compound: CN(C)C(=N)N=C(N)N [Metformin]
- reduction in the rate of progression to type 2 DM [2]: 31%

Compound: NPH insulin: a moderate- to long-acting insulin with a pronounced peak in plasma activity
- time of pronounced peak in plasma activity / peak effect after injection [3]: 3 to 6 h

Compound: CCC1=C(C)CN(C(=O)NCCc2ccc(S(=O)(=O)NC(=O)N[C@H]3CC[C@H](C)CC3)cc2)C1=O [AMARYL, glimepiride]
- HDL Baseline ([4]; TG baseline range 200-500): 38
- HDL Endpoint ([4]; TG baseline range 200-500): 39
- Non-HDL Cholesterol Total % reduction from baseline ([4]; TG baseline range 200-500): 3%
- Non-HDL Cholesterol Total Baseline ([4]; TG baseline range 200-500): 197
- Non-HDL Cholesterol Total Endpoint ([4]; TG baseline range 200-500): 191
- Triglycerides % reduction from baseline ([4]; TG baseline range 200-500): 12%
- Triglycerides Baseline ([4]; TG baseline range 200-500): 299
- Triglycerides Endpoint ([4]; TG baseline range 200-500): 265
- HDL Baseline ([4]; TG baseline range 300-500): 36
- HDL Endpoint ([4]; TG baseline range 300-500): 37
- Non-HDL Cholesterol Total % reduction from baseline ([4]; TG baseline range 300-500): 3%
- Non-HDL Cholesterol Total Baseline ([4]; TG baseline range 300-500): 203
- Non-HDL Cholesterol Total Endpoint ([4]; TG baseline range 300-500): 198
- Triglycerides % reduction from baseline ([4]; TG baseline range 300-500): 18%
- Triglycerides Baseline ([4]; TG baseline range 300-500): 390
- Triglycerides Endpoint ([4]; TG baseline range 300-500): 321
- HDL Baseline ([4]; TG baseline range 300-1000): 36
- HDL Endpoint ([4]; TG baseline range 300-1000): 37
- Non-HDL Cholesterol Total % reduction from baseline ([4]; TG baseline range 300-1000): 5%
- Non-HDL Cholesterol Total Baseline ([4]; TG baseline range 300-1000): 209
- Non-HDL Cholesterol Total Endpoint ([4]; TG baseline range 300-1000): 198
- Triglycerides % reduction from baseline ([4]; TG baseline range 300-1000): 23%
- Triglycerides Baseline ([4]; TG baseline range 300-1000): 459
- Triglycerides Endpoint ([4]; TG baseline range 300-1000): 350
- HDL Baseline ([4]; TG baseline range 500-1000): 37
- HDL Endpoint ([4]; TG baseline range 500-1000): 39
- Non-HDL Cholesterol Total % reduction from baseline ([4]; TG baseline range 500-1000): 10%
- Non-HDL Cholesterol Total Baseline ([4]; TG baseline range 500-1000): 224
- Non-HDL Cholesterol Total Endpoint ([4]; TG baseline range 500-1000): 200
- Triglycerides % reduction from baseline ([4]; TG baseline range 500-1000): 33%
- Triglycerides Baseline ([4]; TG baseline range 500-1000): 662
- Triglycerides Endpoint ([4]; TG baseline range 500-1000): 445
- LDL Baseline ([4]; TG baseline range All): 142
- LDL Endpoint ([4]; TG baseline range All): 140

Compound: CN(CCOc1ccc(CC2SC(=O)NC2=O)cc1)c1ccccn1 (stereo not shown) [AVANDIA, rosiglitazone]
- HDL Baseline ([5]; TG baseline range 200-500): 38
- HDL Endpoint ([5]; TG baseline range 200-500): 40
- LDL Baseline ([5]; TG baseline range 200-500): 99
- LDL Endpoint ([5]; TG baseline range 200-500): 129
- Non-HDL Cholesterol Total Endpoint ([5]; TG baseline range 200-500): 59
- Triglycerides % reduction from baseline ([5]; TG baseline range 200-500): 0.1%
- Triglycerides Baseline ([5]; TG baseline range 200-500): 294
- Triglycerides Endpoint ([5]; TG baseline range 200-500): 291
- HDL Baseline ([5]; TG baseline range 300-500): 38
- HDL Endpoint ([5]; TG baseline range 300-500): 41
- Non-HDL Cholesterol Total % reduction from baseline ([5]; TG baseline range 300-500): −17%
- Non-HDL Cholesterol Total Baseline ([5]; TG baseline range 300-500): 177
- Non-HDL Cholesterol Total Endpoint ([5]; TG baseline range 300-500): 207
- Triglycerides % reduction from baseline ([5]; TG baseline range 300-500): 9%
- Triglycerides Baseline ([5]; TG baseline range 300-500): 376
- Triglycerides Endpoint ([5]; TG baseline range 300-500): 341
- HDL Baseline ([5]; TG baseline range 500-1000): 39
- HDL Endpoint ([5]; TG baseline range 500-1000): 38
- Non-HDL Cholesterol Total Baseline ([5]; TG baseline range 500-1000): 231
- Non-HDL Cholesterol Total Endpoint ([5]; TG baseline range 500-1000): 261
- Triglycerides Baseline ([5]; TG baseline range 500-1000): 572
- Triglycerides Endpoint ([5]; TG baseline range 500-1000): 649
- effect on DDL parameters compared with LANTUS ([5]; in vivo): significantly inferior
- effects on the abnormalities of DDL [6]: almost no effect
